Experimental data: the supplement of paper PMC10307832

What was measured:
Assay in all cases: relative viability (nuclei count vs DMSO), 5 days (fraction); higher = more cells survive
VX-702 + Lapatinib = compound: NC(=O)c1ccc(N(C(N)=O)c2c(F)cccc2F)nc1-c1ccc(F)cc1F [VX-702] + CS(=O)(=O)CCNCc1ccc(-c2ccc3ncnc(Nc4ccc(OCc5cccc(F)c5)c(Cl)c4)c3c2)o1 [Lapatinib] (partner 2 µM)
Procedure, shortened: (§1)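 Five library-drug doses in √10 steps were combined with a fixed anchor-drug dose, or a single drug was given alone, by pin tool to lung cancer cell lines in 1536-well plates the day after seeding. Nuclei were stained and counted after 5 days. Relative viability is the nuclei count in treated wells over that in vehicle wells, taken as the median of duplicate plates.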

VX-702 + Bortezomib = compound: NC(=O)c1ccc(N(C(N)=O)c2c(F)cccc2F)nc1-c1ccc(F)cc1F [VX-702] + CC(C)C[C@H](NC(=O)[C@H](Cc1ccccc1)NC(=O)c1cnccn1)B(O)O [Bortezomib] (partner 0.002 µM)
Procedure, shortened: as §1

Dabrafenib + Tozasertib = compound: CC(C)(C)c1nc(-c2cccc(NS(=O)(=O)c3c(F)cccc3F)c2F)c(-c2ccnc(N)n2)s1 [Dabrafenib] + Cc1cc(Nc2cc(N3CCN(C)CC3)nc(Sc3ccc(NC(=O)C4CC4)cc3)n2)n[nH]1 [Tozasertib] (partner 0.1 µM)
Procedure, shortened: as §1

Dabrafenib + Phenformin = compound: CC(C)(C)c1nc(-c2cccc(NS(=O)(=O)c3c(F)cccc3F)c2F)c(-c2ccnc(N)n2)s1 [Dabrafenib] + N=C(N)NC(=N)NCCc1ccccc1 [Phenformin] (partner 250 µM)
Procedure, shortened: as §1

Cell Line	relative viability (VX-702 + Lapatinib; first compound 0.02 µM)	relative viability (VX-702 + Lapatinib; first compound 0.2 µM)	relative viability (VX-702 + Lapatinib; first compound 0.6325 µM)	relative viability (VX-702 + Lapatinib; first compound 2 µM)	relative viability (VX-702 + Bortezomib; first compound 0.02 µM)	relative viability (VX-702 + Bortezomib; first compound 0.2 µM)	relative viability (VX-702 + Bortezomib; first compound 0.6325 µM)	relative viability (VX-702 + Bortezomib; first compound 2 µM)	relative viability (Dabrafenib + Tozasertib; first compound 0.003 µM)	relative viability (Dabrafenib + Tozasertib; first compound 0.009487 µM)	relative viability (Dabrafenib + Tozasertib; first compound 0.03 µM)	relative viability (Dabrafenib + Tozasertib; first compound 0.09487 µM)	relative viability (Dabrafenib + Tozasertib; first compound 0.3 µM)	relative viability (Dabrafenib + Phenformin; first compound 0.003 µM)	relative viability (Dabrafenib + Phenformin; first compound 0.009487 µM)	relative viability (Dabrafenib + Phenformin; first compound 0.03 µM)	relative viability (Dabrafenib + Phenformin; first compound 0.09487 µM)	relative viability (Dabrafenib + Phenformin; first compound 0.3 µM)
UMC-11	0.866	0.908	0.769	1.04	0.717	0.666	0.689	0.827	0.189	0.202	0.19	0.197	0.231	0.289	0.331	0.332	0.329	0.279
NCI-H1437	0.779	0.753	0.972	0.959	0.592	0.631	0.587	0.595	0.496	0.385	0.412	0.409	0.416	0.2	0.3	0.259	0.3	0.4
EKVX	0.215	0.22	0.226	0.127	1.01	0.738	1.05	1.42	0.475	0.406	0.407	0.337	0.457	0.147	0.227	0.187	0.196	0.236
COR-L 105	0.332	0.336	0.338	0.326	0.957	0.888	0.907	0.54	0.332	0.415	0.362	0.347	0.395	0.497	0.507	0.417	0.492	0.547
NCI-H650	0.876	–	0.43	1.16	0.802	–	1.05	1.07	–	0.667	0.738	0.502	0.38	–	0.475	0.393	0.262	0.35
NCI-H1648	–	–	–	–	–	–	–	–	0.641	0.463	0.685	0.396	0.376	–	–	–	–	–
NCI-H2009	1.14	0.931	1.01	1.08	1.29	1.15	1.22	1.3	0.703	0.759	0.672	0.649	0.62	0.412	0.426	0.341	0.312	0.268
LXF-289	0.965	0.876	0.912	0.922	1.03	1.03	0.998	1.02	0.192	0.178	0.116	0.203	0.187	0.364	0.511	0.487	0.493	0.542
NCI-H647	1.15	0.935	1.24	1.25	1.14	0.84	1.25	1.41	0.388	0.292	0.27	0.298	0.434	0.129	0.521	0.418	0.486	0.458
NCI-H1666	0.828	0.583	0.711	0.438	0.906	0.672	0.989	0.606	0.562	0.637	0.678	0.672	0.672	0.483	0.554	0.576	0.583	0.68
NCI-H1734	0.541	0.961	1.05	0.917	0.865	0.844	0.847	0.738	–	0.248	0.251	0.312	0.271	–	0.302	0.388	0.389	0.362
BEN	0.726	0.662	0.539	0.926	0.823	0.545	0.658	0.922	–	0.563	–	0.412	0.501	–	0.257	–	0.272	0.242
PC-3 [JPC-3]	0.468	0.461	0.442	0.414	0.836	0.796	0.966	0.809	0.934	0.957	0.941	0.827	0.929	0.405	0.491	0.465	0.441	0.476
NCI-H2228	0.851	1.04	1.04	1.33	1.02	0.917	1.31	1.04	–	0.246	0.248	0.236	0.244	–	0.326	0.289	0.37	0.258
HOP-62	1.04	0.894	1.08	0.975	0.67	0.566	0.696	0.653	0.422	0.39	0.331	0.362	0.399	0.518	0.604	0.627	0.491	0.495
H3255	0.24	0.254	0.26	0.241	0.716	0.772	1.02	0.917	0.507	0.675	0.721	0.609	0.629	0.345	0.444	0.338	0.391	0.383
201T	1.06	0.991	1.12	1.09	1.13	1.07	1.17	1.17	1.02	0.915	0.918	0.912	1.04	0.423	0.428	0.372	0.41	0.465
HCC-44	1.03	1.03	0.982	1.05	0.909	0.856	0.845	0.992	0.959	0.974	0.976	0.836	0.989	–	0.173	0.183	0.227	0.235
ABC-1	0.972	0.98	–	1.18	0.35	–	0.26	0.329	0.215	0.244	0.206	0.132	0.174	0.214	0.233	0.254	0.232	0.209
HARA	0.653	0.69	0.91	0.825	0.605	1.05	1.17	1.34	0.101	0.116	–	0.115	0.113	0.448	0.46	–	0.364	0.511
A-427	1.17	0.968	1.07	1.16	0.984	0.947	0.988	1.05	–	0.202	0.187	0.196	0.209	–	0.292	0.273	0.276	0.378
NCI-H3122	1.07	0.977	1.04	1.03	0.991	0.958	0.987	0.931	0.427	0.449	0.391	0.374	0.367	0.32	0.349	0.39	0.369	0.37
PC-14	0.363	0.245	0.311	0.29	0.888	0.852	0.854	0.991	–	0.631	0.647	0.527	0.624	–	0.493	0.623	0.583	0.83

Cell Line	relative viability (VX-702 + Lapatinib; first compound 0.02 µM)	relative viability (VX-702 + Lapatinib; first compound 0.2 µM)	relative viability (VX-702 + Lapatinib; first compound 0.6325 µM)	relative viability (VX-702 + Lapatinib; first compound 2 µM)	relative viability (VX-702 + Bortezomib; first compound 0.02 µM)	relative viability (VX-702 + Bortezomib; first compound 0.2 µM)	relative viability (VX-702 + Bortezomib; first compound 0.6325 µM)	relative viability (VX-702 + Bortezomib; first compound 2 µM)	relative viability (Dabrafenib + Tozasertib; first compound 0.003 µM)	relative viability (Dabrafenib + Tozasertib; first compound 0.009487 µM)	relative viability (Dabrafenib + Tozasertib; first compound 0.03 µM)	relative viability (Dabrafenib + Tozasertib; first compound 0.09487 µM)	relative viability (Dabrafenib + Tozasertib; first compound 0.3 µM)	relative viability (Dabrafenib + Phenformin; first compound 0.003 µM)	relative viability (Dabrafenib + Phenformin; first compound 0.009487 µM)	relative viability (Dabrafenib + Phenformin; first compound 0.03 µM)	relative viability (Dabrafenib + Phenformin; first compound 0.09487 µM)	relative viability (Dabrafenib + Phenformin; first compound 0.3 µM)
NCI-H1915	1.05	1	1	1.07	1.06	0.893	0.991	1.01	0.46	0.458	0.391	0.328	0.41	0.392	0.402	0.266	0.29	0.272
NCI-H1793	0.752	0.59	0.817	0.987	–	–	–	–	–	0.464	–	–	0.293	–	0.398	–	–	0.39
NCI-H1703	1.2	0.931	0.647	1.21	0.286	0.37	0.255	0.289	–	–	–	–	–	–	–	–	–	–
Calu-6	1.07	1.1	1.13	1.25	1.04	1.12	1.24	1.16	–	–	–	–	–	–	–	–	–	–
NCI-H1623	–	–	–	–	–	–	–	–	–	0.466	0.431	0.447	0.524	–	0.611	0.572	0.602	0.682
LCLC-103H	–	–	–	–	1.17	0.949	1.05	1.11	0.401	0.514	0.424	0.44	0.5	0.304	0.35	0.328	0.345	0.331
NCI-H1792	0.965	0.811	0.97	1.08	0.863	0.978	0.966	1.21	–	–	–	–	–	–	0.485	0.198	0.34	0.202
LK-2	0.986	0.727	0.891	0.895	–	–	–	–	0.182	0.174	–	0.174	0.152	0.38	0.573	–	0.475	0.603
ChaGo-K-1	–	–	–	–	0.911	0.861	1.06	1.22	0.219	0.223	0.225	0.194	0.239	0.315	0.446	0.472	0.418	0.556
NCI-H1395	0.898	1.16	1.09	1.17	–	–	–	–	0.718	0.633	0.762	0.667	0.648	0.325	0.462	0.447	0.403	0.437
NCI-H522	–	–	–	–	–	–	–	–	–	0.471	0.59	0.58	0.621	–	0.654	0.616	0.628	0.634
NCI-H1299	1.02	0.965	1.03	1.06	1.09	1.03	1.12	1.09	–	–	–	–	–	–	–	–	–	–
SK-MES-1	0.449	0.407	0.458	0.43	–	–	–	–	0.863	0.874	0.861	0.811	0.565	0.582	0.757	0.665	0.543	0.508
IA-LM	0.789	0.738	0.77	0.761	0.787	0.796	0.872	0.919	–	–	–	–	–	–	–	–	–	–
NCI-H358	0.485	0.442	0.484	0.546	–	–	–	–	0.102	0.0949	0.0962	0.106	0.0813	0.193	0.457	0.467	0.344	0.419
NCI-H441	–	–	–	–	0.641	0.463	0.492	0.575	–	0.555	0.632	0.571	0.495	–	1.04	1	0.548	0.563
NCI-H1944	0.903	0.774	0.878	0.789	–	–	–	–	0.252	0.262	0.233	0.254	0.239	0.182	0.199	0.188	0.222	0.208
NCI-H2170	0.278	0.284	0.273	0.299	–	–	–	–	0.805	0.811	0.632	0.62	0.727	0.4	0.367	0.385	0.384	0.421
EBC-1	0.228	0.175	0.188	0.188	0.622	0.545	0.587	0.603	–	–	–	–	–	–	–	–	–	–
NCI-H1563	0.939	0.991	1.02	0.691	0.812	0.891	0.918	0.616	–	–	–	–	–	0.622	0.667	0.653	0.752	0.748
NCI-H2342	–	–	–	–	–	–	–	–	0.44	0.484	0.452	0.52	0.586	0.444	0.599	0.546	0.653	0.612
A549	1.05	0.922	0.943	1.03	–	–	–	–	–	–	–	–	–	–	0.18	0.191	0.173	0.151
